Reference: the supplement of paper PMC11451515

Tested on: P12-Ichikawa
Assay: cell viability relative to DMSO control; higher = less cytotoxic
Details: 48 h
Outline: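 Viability was expressed as a per-plate percentage of DMSO wells, with cell-free wells as background. Leukemia cells (NOMO1 or SEM at 500 cells/well, P12-Ichikawa at 1000 cells/well) were adapted for at least four passages in each medium and seeded in 1536-well plates (5 μl). Library compounds in DMSO were pin-dosed over an 11-point threefold series from 47 μM to 0.79 nM, and CellTiter-Glo One luminescence was read after 48 h at 37°C.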

[1] = HPLM + 10% dialyzed FBS, 0.000781 µM
[2] = HPLM + 10% dialyzed FBS, 0.00234 µM
[3] = HPLM + 10% dialyzed FBS, 0.00702 µM
[4] = HPLM + 10% dialyzed FBS, 0.0211 µM
[5] = HPLM + 10% dialyzed FBS, 0.0632 µM
[6] = HPLM + 10% dialyzed FBS, 0.19 µM
[7] = HPLM + 10% dialyzed FBS, 0.569 µM
[8] = HPLM + 10% dialyzed FBS, 1.71 µM
[9] = HPLM + 10% dialyzed FBS, 5.12 µM
[10] = HPLM + 10% dialyzed FBS, 15.4 µM
[11] = HPLM + 10% dialyzed FBS, 46.1 µM
[12] = RPMI 5 mM glucose + 10% FBS, 0.000781 µM
[13] = RPMI 5 mM glucose + 10% FBS, 0.00234 µM
[14] = RPMI 5 mM glucose + 10% FBS, 0.00702 µM
[15] = RPMI 5 mM glucose + 10% FBS, 0.0211 µM
[16] = RPMI 5 mM glucose + 10% FBS, 0.0632 µM
[17] = RPMI 5 mM glucose + 10% FBS, 0.19 µM
[18] = RPMI 5 mM glucose + 10% FBS, 0.569 µM
[19] = RPMI 5 mM glucose + 10% FBS, 1.71 µM
[20] = RPMI 5 mM glucose + 10% FBS, 5.12 µM
[21] = RPMI 5 mM glucose + 10% FBS, 15.4 µM
[22] = RPMI 5 mM glucose + 10% FBS, 46.1 µM
[23] = RPMI 5 mM glucose + 10% dialyzed FBS, 0.000781 µM
[24] = RPMI 5 mM glucose + 10% dialyzed FBS, 0.00234 µM
[25] = RPMI 5 mM glucose + 10% dialyzed FBS, 0.00702 µM
[26] = RPMI 5 mM glucose + 10% dialyzed FBS, 0.0211 µM
[27] = RPMI 5 mM glucose + 10% dialyzed FBS, 0.0632 µM
[28] = RPMI 5 mM glucose + 10% dialyzed FBS, 0.19 µM
[29] = RPMI 5 mM glucose + 10% dialyzed FBS, 0.569 µM
[30] = RPMI 5 mM glucose + 10% dialyzed FBS, 1.71 µM
[31] = RPMI 5 mM glucose + 10% dialyzed FBS, 5.12 µM
[32] = RPMI 5 mM glucose + 10% dialyzed FBS, 15.4 µM
[33] = RPMI 5 mM glucose + 10% dialyzed FBS, 46.1 µM

SMILES	cell viability [1] [%]	cell viability [2] [%]	cell viability [3] [%]	cell viability [4] [%]	cell viability [5] [%]	cell viability [6] [%]	cell viability [7] [%]	cell viability [8] [%]	cell viability [9] [%]	cell viability [10] [%]	cell viability [11] [%]	cell viability [12] [%]	cell viability [13] [%]	cell viability [14] [%]	cell viability [15] [%]	cell viability [16] [%]	cell viability [17] [%]	cell viability [18] [%]	cell viability [19] [%]	cell viability [20] [%]	cell viability [21] [%]	cell viability [22] [%]	cell viability [23] [%]	cell viability [24] [%]	cell viability [25] [%]	cell viability [26] [%]	cell viability [27] [%]	cell viability [28] [%]	cell viability [29] [%]	cell viability [30] [%]	cell viability [31] [%]	cell viability [32] [%]	cell viability [33] [%]
CCOC(=O)c1c(/C(C#N)=C\N)c2ccc(Cl)c(Cl)c2n1C	90.1	94.9	84.9	97.5	91.7	92.2	92.1	91.6	84.7	83	91.7	88.1	88.7	85.5	94.8	83.2	86.3	81.1	91	82.8	81.2	87.4	84.5	86.2	89.9	92.8	90.6	96.9	87.9	88.7	89	92.8	90.8
CCCCC(F)(F)[C@@]1(O)CC[C@H]2[C@@H](CC(=O)[C@@H]2CCCCCCC(=O)O)O1	128	123	120	124	122	116	117	103	108	111	113	–	–	–	–	–	–	–	–	–	–	–	–	–	–	–	–	–	–	–	–	–	–
CN1CCN(CC1)C/2=N/C3=CC=CC=C3NC4=C2C=C(C)S4	98	93.9	105	98.5	98.8	104	107	96.9	87.4	97.4	91.1	92.8	104	104	102	102	105	102	101	72.2	102	84.8	94.1	99.9	97.9	96.8	98.3	99.9	99.1	91.4	92.1	93	91.9
CC1(C)CCC(=C(\C1)C2=CC=C(Cl)C=C2)/CN3CCN(CC3)C4=CC(=C(C=C4)C(=O)N[S+]([O-])(=O)C5=CC=C(NCC6CCOCC6)C(=C5)[N+]([O-])=O)OC7=CN=C8[NH]C=CC8=C7	98.6	108	104	102	98	98.3	98.5	97.5	83.9	67	49	103	106	114	104	104	100	99.2	89.6	96.5	81.5	68.1	100	103	101	105	96.3	103	99	90.8	96.1	78.1	65.7
COc1ccccc1OCC(O)CN1CCN(CC(=O)Nc2c(C)cccc2C)CC1 (centres undefined)	122	119	127	127	130	132	135	132	140	112	110	–	–	–	–	–	–	–	–	–	–	–	–	–	–	–	–	–	–	–	–	–	–
O=C(O)C(=O)Nc1cccc(-c2nnn[nH]2)c1	101	94.9	103	108	108	106	105	106	112	112	111	109	111	106	112	126	107	113	114	108	116	107	100	105	106	108	107	106	100	105	98.4	105	102
CC(C)C[C@@H](C(=O)N[C@H](C(=O)OC1CCCC1)c1ccccc1)[C@H](O)C(=O)NO	109	111	112	114	108	108	104	105	95.5	86.8	59.7	103	119	114	113	107	116	110	93.8	89.6	69.8	37.1	112	113	115	116	111	103	110	102	89	89.6	35.9
CON(C)C(=O)N1\N=C(/S[C@]1(CCCN)C2=CC=CC=C2)C3=CC(=CC=C3F)F	46	13.4	12.4	12.8	13	12.8	14.2	12.1	12.7	11.2	13.1	12	17.2	17.5	16.2	16.8	17.7	16.6	13.6	14.2	12.2	11.2	24.8	28	21.3	21.4	22.5	24.6	21	22.4	19.1	18.3	19.9
N[S+](=O)([O-])c1cc2c(cc1Cl)NCN[S+]2(=O)[O-]	94.4	103	104	110	112	116	116	113	111	110	104	111	115	110	125	118	126	126	121	108	118	120	110	106	108	105	116	105	111	116	118	107	104
CC/C(=C(\c1ccccc1)c1ccc(OCCN(C)C)cc1)c1ccccc1	102	106	102	104	95.8	109	104	109	113	104	86.3	99.9	102	96.2	118	89.7	102	104	99.4	108	100	83.9	113	108	113	114	95.3	112	117	117	104	102	76.9
O=C(c1ccc(C(=O)N2CCC(N3CCCC3)CC2)c(Nc2ccccc2)c1)N1CCC(N2CCCC2)CC1	103	103	103	106	108	102	106	109	98.9	96.5	94.5	104	95.3	93.7	101	98.1	100	95.8	97.4	100	92.1	95.4	98.3	97.5	95.9	96.3	100	101	103	101	91.1	96.1	86.1
CCCCc1ccc(N[S+](=O)([O-])c2ccc(C)c(C(=O)N3CCN(c4cccc(C)c4C)CC3)c2)cc1	125	125	122	96.6	118	125	121	122	120	105	106	–	–	–	–	–	–	–	–	–	–	–	–	–	–	–	–	–	–	–	–	–	–
COc1cc2nc(N3CCN(C(=O)c4ccco4)CC3)nc(N)c2cc1OC	88.4	91.4	95	102	99	93.2	110	84.7	97.1	55.1	4.81	84.1	88.8	97.8	91.6	98.2	103	87	95	91.2	98.9	5.43	77.1	74.4	91	80.1	90.7	85.3	93.5	89.1	90.1	95.1	5.58
O=P1(NCCCl)OCCCN1CCCl (centres undefined)	84	94	88.4	91.6	92.9	88.1	95.1	93.9	91.8	62.5	94.2	82.8	76.7	81.5	85.6	88.8	86.7	87.9	86.1	92	93.2	66.7	77	77.2	75.3	78.1	84.8	82.7	85.9	85.2	87.2	87	79.8
Cc1nc(N)sc1-c1ccnc(Nc2ccc(N3CCOCC3)cc2)n1	97.4	100	108	109	112	108	111	104	19.4	25	43.8	92.4	107	105	107	114	113	109	116	29.3	24.6	37.6	97.6	111	112	109	112	114	112	110	35.4	42	38.5
CC[P](CC)(CC)=[Au][S][C@@H]1O[C@H](COC(C)=O)[C@@H](OC(C)=O)[C@H](OC(C)=O)[C@H]1OC(C)=O	122	108	116	109	115	105	110	77.2	23	2.24	1.8	104	119	112	123	115	103	109	9.37	2.79	2.08	1.61	117	111	117	117	114	105	96.3	3.62	2.8	–	1.1
Oc1ccc(-c2nc(-c3ccncc3)c(-c3ccc(F)cc3)[nH]2)cc1	115	112	118	114	124	120	130	115	64.3	13	5.07	99.2	99.7	117	111	111	126	117	115	98.8	60.7	2.19	103	112	113	119	123	113	130	116	82.7	46	6.46
